Values quoted from earlier work in US12433860B2, “Treatment of multiple sclerosis comprising DHODH inhibitors” (Immunic AG, priority 2021, dated 2025).

Test system: patients with active rheumatoid arthritis
Settings: 35 mg once-daily for 13 weeks; cited from earlier work

## COc1cccc(-c2ccc(NC(=O)C3=C(C(=O)O)CCC3)c(F)c2)c1 [vidofludimus, 2-((3-fluoro-3′-methoxy-[1,1′-biphenyl]-4-yl)carbamoyl)cyclopent-1-enecarboxylic acid]
  diarrhoea, alopecia, neutropenia or liver enzyme elevations: no notable increases
  safety profile as compared to placebo: overall similar safety profile as compared to placebo
